The experiment can be described thus: Antagonist activity at muscarinic receptor. It counts as functional.

For `C[N+]1(C)C2CCC1CC(OC(=O)C(CC(=O)O[C@H]1C[C@H]3CC[C@@H](C1)[N+]3(C)C)c1ccccc1)C2` (some centres not stated), the pKi (in general, −log10 of the Ki, conventionally taken in molar units) stood at 7.18. `COC(=O)C(C(=O)O[C@@H]1C[C@@H]2[C@H]3O[C@H]3[C@H](C1)[N+]2(C)C)(c1ccccc1)C1CCCC1` (some centres not stated) registered a pKi of 7.28. `CCCCCCOC(=O)C(C(=O)O[C@@H]1C[C@@H]2[C@H]3O[C@H]3[C@H](C1)[N+]2(C)C)c1ccccc1` (some centres not stated) displayed a pKi of 7.33. `C[N+]1(C)[C@@H]2C[C@@H](OC(=O)C(C(=O)OC3CCCCC3)c3ccccc3)C[C@H]1[C@@H]1O[C@@H]12` (some centres not stated) had a pKi of 8.01. The result for `CN1[C@@H]2C[C@@H](OC(=O)C(c3ccccc3)C3CCCC3)C[C@H]1[C@@H]1O[C@@H]12` (some centres not stated) reads 7.14. To `CCOC(=O)C(C(=O)O[C@@H]1C[C@@H]2[C@H]3O[C@H]3[C@H](C1)[N+]2(C)C)(c1ccccc1)C1CCCC1` (some centres not stated) belongs 7.98. To `C[N+]1(C)[C@@H]2CC[C@H]1C[C@@H](OC(=O)CCC(C(=O)O[C@@H]1C[C@H]3CC[C@@H](C1)[N+]3(C)C)c1ccccc1)C2` (some centres not stated) belongs 6.5; to `C[S+]([O-])COC(=O)C(O[C@@H]1CC2CC[C@H](C1)[N+]2(C)C)c1ccccc1` (single isomer, unassigned), 7.25; to `C=CCN1C2CC[C@@H]1C[C@H](OC(c1ccc(F)cc1)c1ccc(F)cc1)C2` (single isomer, unassigned), 2.25.

As to `CCCCN1C2CC[C@@H]1C[C@H](OC(c1ccc(F)cc1)c1ccc(F)cc1)C2` (single isomer, unassigned), the pKi amounted to 2.6. Compound `Fc1ccc(C(O[C@@H]2CC3CC[C@H](C2)N3Cc2ccccc2)c2ccc(F)cc2)cc1` (single isomer, unassigned) showed a pKi of 3.01. To `CN1C2CC[C@@H]1C[C@H](OC(c1ccc(F)cc1)c1ccc(F)cc1)C2` (single isomer, unassigned) belongs 1.06. As for `CCOC(=O)C(C(=O)O[C@@H]1CC2[C@H]3O[C@H]3[C@H](C1)[N+]2(C)C)c1ccccc1` (single isomer, unassigned), the pKi was determined as 8.32. The result for `CN1[C@@H]2CC[C@H]1C[C@@H](OC(=O)C(CO)c1ccccc1)C2` (some centres not stated) [ATROPINE] reads 9.34; that for `CN1[C@@H]2CC[C@H]1C[C@@H](OC(c1ccccc1)c1ccccc1)C2` [BENZTROPINE], 0.33. The result for `COC(=O)[C@H]1[C@@H](OC(=O)c2ccccc2)C[C@@H]2CC[C@H]1N2C` [COCAINE] reads 4.79; that for `CN1[C@@H]2C[C@@H](OC(=O)[C@H](CO)c3ccccc3)C[C@H]1[C@@H]1O[C@@H]12` [SCOPOLAMINE], 8.95.

These data come from ChEMBL document CHEMBL1158419, “3D-QSAR study of 8-azabicyclo[3.2.1] octane analogs antagonists of cholinergic receptor” (Bioorg Med Chem Lett, 2009).
